Laboratory results as given in patent publication US9969744B2, “Compounds for use in cognition improvement” (FUNDACIÓN PARA LA INVESTIGACIÓN MÉDICA APLICADA, priority 2014, dated 2018).

Legend:
[1] = system: acetylated histone 3 at Lys9 (AcH3K9); experiment: HDAC activity using SHSY-5Y cell line (Western blot, histone 3 acetylation); format: cell-based, human; parameters: key: basal x1 means no increment (+); basal x1.4≤(++)<basal x2; basal x2≤(+++)<basal x3; basal x3≤(++++); N.E. means No Effect; details: SHSY-5Y cells, 24 hours
Description: HDAC inhibition leads to the corresponding functional response, increase in AcH3 level. Therefore, the cellular assay to conclude HDAC activity was assessed by Western blot analysis using specific antibodies against acetylated histone 3 at Lys9 (AcH3K9). Cell cultures were treated at 100 nM, 500 nM, 1 μM and/or 5 μM with compounds of the invention or known PDE inhibitors during 24 hours and, Table 1 (below) describes the functional activity: histone 3 acetylation level (AcH3) vs basal (no treatment).
A human neuroblastoma cell line (SHSY-5Y) was used. Cell line was obtained from ATCC (CRL-2266) and cultured in 35 mm plates (Becton Dickinson, NJ).
The cells were grown to 90% confluence at 37° C. in an atmosphere of 5% CO2 and in Dulbecco's modified Eagle's medium supplemented with Glutamax (Gibco, Invitrogen, CA), 100 units/ml penicillin/streptomycin, 1×MEM nonessential amino acids and 10% fetal bovine serum (Gibco, Invitrogen, CA).
Cells were collected and sonicated in a buffer containing a cold lysis buffer with protease inhibitors (0.2 M NaCl, 0.1 M HEPES (4-(2-hydroxyethyl)-1-piperazineethanesulfonic acid), 10% glycerol, 200 mM NaF, 2 mM Na4P2O7, 5 mM EDTA (ethylenediaminetetraacetic acid), 1 mM EGTA (ethylene glycol tetraacetic acid), 2 mM DTT (dithiothreitol), 0.5 mM PMSF (phenylmethylsulfonyl fluoride), 1 mM Na3VO4 and Complete Protease Inhibitor Cocktail, Roche Diagnostics), centrifuged at 14,000×g 4° C. for 20 min and the supernatant was aliquoted and stored at −80° C. Total protein concentrations were determined using the BioRad Bradford protein assay (BioRad Laboratories).
Protein samples were mixed with Laemmli sample buffer, resolved onto Sodium Dodecyl Sulfate (SDS)-polyacrylamide gels and transferred to nitrocellulose membrane. The membranes were blocked with 5% milk, 0.05% Tween-20 in PBS (Phosphate-Buffered Saline) or TBS (Tris-Buffered Saline) followed by overnight incubation with the following primary antibodies: rabbit polyclonal anti-acetylated Histone 3 (acetyl K9) (Cell Signalling Technology), rabbit polyclonal anti-total Histone 3 (Millipore), in the corresponding buffer. All the antibodies were used at 1:1000 dilution except the mouse monoclonal anti-β-actin which was used at 1:50.000. Following two washes in TBS/Tween20 and one wash in TBS alone, immunolabeled protein bands were detected by using HRP-conjugated anti-rabbit or anti-mouse antibody (Santa Cruz Biotechnology; dilution 1:5.000) following an enhanced chemiluminescence system (ECL, GE Healthcare Bioscience, Buckinghamshire, UK), and autoradiographic exposure to HyperfilmtECL (GE Healthcare Bioscience). Quantity One™ software v.4.6.3 (Bio-Rad) was used for quantification.

[2] = biological target: T1, PDE5A1 (Homo sapiens, UniProt O76074); experiment: PDE enzyme activity assay (HTRF cGMP), PDE5A; format: biochemical; details: recombinant enzyme; read-out: PDE5A1 inhibition (IC50)
T1 construct: they are full-length with N-terminal GST tag; GST (N); purchased BPS Biosciences 60050; host or cells: baculovirus infected Sf9 cells

[3] = system: pCREB; experiment: In-vivo pCREB in hippocampus of wild type mice; parameters: key: basal x1 means no increment (+); basal x1.4≤(++)<basal x2; basal x2≤(+++)<basal x3; basal x3≤(++++); N.E. means No Effect; details: single dose of 12.5 mg/Kg i.p.
Description: (§1) Another group of animals received the vehicle (1/1/8, v:v:v, DMSO/Tween 20/saline). One hour later, mice were sacrificed by cervical dislocation and their hippocampus was quickly dissected from the brains. Total tissue homogenates were obtained by homogenizing the hippocampus in a cold lysis buffer with protease inhibitors (0.2 M NaCl, 0.1 M HEPES, 10% glycerol, 200 mM NaF, 2 mM Na4P2O7, 5 mM EDTA, 1 mM EGTA, 2 mM DTT, 0.5 mM PMSF, 1 mM Na3VO4 and Complete Protease Inhibitor Cocktail, Roche Diagnostics). The homogenate was then centrifuged at 14,000×g at 4° C. for 20 min and the supernatant aliquoted and stored at −80° C. Total protein concentrations were determined using the BioRad Bradford protein assay (BioRad Laboratories). Protein samples were analyzed as described in the “in vitro” section.

[4] = system: AcH3; experiment: In-vivo AcH3 in hippocampus of wild type mice; details: single dose of 12.5 mg/Kg i.p.
Description: as §1

[5] = biological target: T2, PDE9A (Homo sapiens, UniProt O76083); experiment: PDE enzyme activity assay (HTRF cGMP), PDE9A; format: biochemical; details: recombinant enzyme; read-out: PDE9A inhibition (IC50)
T2 construct: they are full-length with N-terminal GST tag; GST (N); purchased BPS Biosciences 60090; host or cells: baculovirus infected Sf9 cells
T2 sequence (O76083 1-533 isoform O76083-2): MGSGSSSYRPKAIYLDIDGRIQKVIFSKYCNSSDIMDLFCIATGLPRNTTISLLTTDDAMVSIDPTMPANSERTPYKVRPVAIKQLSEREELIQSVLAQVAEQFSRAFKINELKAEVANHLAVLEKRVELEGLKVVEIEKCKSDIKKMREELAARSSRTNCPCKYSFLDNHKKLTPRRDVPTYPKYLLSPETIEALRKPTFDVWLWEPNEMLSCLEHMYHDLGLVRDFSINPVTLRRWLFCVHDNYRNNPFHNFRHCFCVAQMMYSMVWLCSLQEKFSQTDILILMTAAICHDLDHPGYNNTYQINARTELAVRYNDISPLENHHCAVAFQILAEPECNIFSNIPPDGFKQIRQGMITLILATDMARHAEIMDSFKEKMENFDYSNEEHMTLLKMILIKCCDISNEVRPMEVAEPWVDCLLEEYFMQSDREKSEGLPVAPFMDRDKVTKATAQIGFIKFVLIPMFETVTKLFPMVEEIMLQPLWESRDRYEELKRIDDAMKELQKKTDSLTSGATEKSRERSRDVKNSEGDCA

| Compound | AcH3: increment in Histone 3 acetylation level vs basal ([1]; compound concentration 1 μM) | IC50 [2] | pCREB increment vs basal [3] | AcH3 increment vs basal [4] | IC50 [5] | AcH3: increment in Histone 3 acetylation level vs basal ([1]; compound concentration 5 μM) |
| --- | --- | --- | --- | --- | --- | --- |
| CCCc1nn(C)c2c(=O)[nH]c(-c3cc(S(=O)(=O)N4CCN(C)CC4)ccc3OCC)nc12 [Sildenafil, reference compound] | N.E. |  |  |  |  |  |
| CCCc1nn(C)c2c(=O)[nH]c(-c3cc(S(=O)(=O)NCc4ccc(C(=O)Nc5ccccc5N)cc4)ccc3OCC)nc12 [Example 1-03] | ++++ (basal x3≤(++++)) | 0.01 to 1 µM |  |  |  |  |
| CCCc1nc(C)c2c(=O)[nH]c(-c3cc(S(=O)(=O)NC4CCN(c5ncc(C(=O)Nc6ccccc6N)cn5)CC4)ccc3OCC)nn12 [Example 2-03] | ++ (basal x1.4≤(++)<basal x2) | < 0.01 µM |  |  |  |  |
| O=C(CCCCCCC(=O)Nc1ccccc1)NO [Vorinostat] | ++++ (basal x3≤(++++)) | > 10 µM | N.E. | +++ (basal x2≤(+++)<basal x3) | > 10 µM |  |
| CCCc1nn(C)c2c(=O)[nH]c(-c3cc(S(=O)(=O)N4CCN(c5ncc(C(=O)Nc6ccccc6N)cn5)CC4)ccc3OCC)nc12 [Example 1-01, N-(2-aminophenyl)-2-[4-[4-ethoxy-3-(1-methyl-7-oxo-3-propyl-6H-pyrazolo[4,3-d]pyrimidin-5-yl)phenyl]sulfonylpiperazin-1-yl]pyrimidine-5-carboxamide] | +++ (basal x2≤(+++)<basal x3) | 0.01 to 1 µM |  |  |  |  |
| CCCc1nn(C)c2c(=O)[nH]c(-c3cc(Cc4ccc(C(=O)Nc5cc(-c6cccs6)ccc5N)cc4)ccc3OCC)nc12 [Example 1-13, N-[2-amino-5-(2-thienyl)phenyl]-4-[[4-ethoxy-3-(1-methyl-7-oxo-3-propyl-6H-pyrazolo[4,3-d]pyrimidin-5-yl)phenyl]methyl]benzamide] | ++ (basal x1.4≤(++)<basal x2) | 1 to 10 µM |  |  |  |  |
| C[C@@H]1CN(Cc2ccc(C(=O)Nc3ccccc3N)cc2)C[C@H]1c1nc2c(cnn2C2CCCC2)c(=O)[nH]1 (racemic) [Example 3-01, N-(2-aminophenyl)-4-[[(3S,4S)-3-(1-cyclopentyl-4-oxo-5H-pyrazolo[3,4-d]pyrimidin-6-yl)-4-methyl-pyrrolidin-1-yl]methyl] benzamide] | ++ (basal x1.4≤(++)<basal x2) |  |  |  | 0.01 to 1 µM |  |
| CCCc1nn(C)c2c(=O)[nH]c(-c3cc(C4CCC(C(=O)Nc5ccccc5N)CC4)ccc3OCC)nc12 (racemic) [Example 1-05, N-(2-aminophenyl)-4-[4-ethoxy-3-(1-methyl-7-oxo-3-propyl-6H-pyrazolo[4,3-d]pyrimidin-5-yl)phenyl]cyclohexanecarboxamide] | +++ (basal x2≤(+++)<basal x3) | 0.01 to 1 µM |  |  |  |  |
| CCCc1nn(C)c2c(=O)[nH]c(-c3cc(C4CCC(C(=O)Nc5ccccc5N)CC4)ccc3OCC)nc12 (stereo not shown) [Example 1-06, N-(2-aminophenyl)-4-[4-ethoxy-3-(1-methyl-7-oxo-3-propyl-6H-pyrazolo[4,3-d]pyrimidin-5-yl)phenyl]cyclohexanecarboxamide] | +++ (basal x2≤(+++)<basal x3) | 0.01 to 1 µM |  |  |  |  |
| CCCc1nc(C)c2c(=O)[nH]c(-c3cc(S(=O)(=O)N4CCN(c5ncc(C(=O)Nc6ccccc6N)cn5)CC4)ccc3OCC)nn12 [Example 2-02, N-(2-aminophenyl)-2-[4-[4-ethoxy-3-(5-methyl-4-oxo-7-propyl-3H-imidazo[5,1-f][1,2,4]triazin-2-yl)phenyl]sulfonylpiperazin-1-yl]pyrimidine-5-carboxamide] | ++++ (basal x3≤(++++)) | < 0.01 µM |  |  |  |  |
| CCCc1nn(C)c2c(=O)[nH]c(-c3cc(CC4CC(C(=O)Nc5ccccc5N)C4)ccc3OCC)nc12 (racemic) [Example 1-04, N-(2-aminophenyl)-3-[[4-ethoxy-3-(1-methyl-7-oxo-3-propyl-6H-pyrazolo[4,3-d]pyrimidin-5-yl)phenyl]methyl]cyclobutanecarboxamide] | ++++ (basal x3≤(++++)) | 0.01 to 1 µM |  |  |  |  |
| CCCc1nc(C)c2c(=O)[nH]c(-c3cc(Cc4ccc(C(=O)Nc5cscc5N)cc4)ccc3OCC)nn12 [Example 2-07, N-(4-amino-3-thienyl)-4-[[4-ethoxy-3-(5-methyl-4-oxo-7-propyl-3H-imidazo[5,1-f][1,2,4]triazin-2-yl)phenyl]methyl]benzamide] | ++ (basal x1.4≤(++)<basal x2) | 0.01 to 1 µM |  |  |  |  |
| CCCc1nn(C)c2c(=O)[nH]c(-c3cc(Cc4ccc(C(=O)Nc5cscc5N)cc4)ccc3OCC)nc12 [Example 1-20] | ++ (basal x1.4≤(++)<basal x2) | 1 to 10 µM |  |  |  |  |
| CCCc1nn(C)c2c(=O)[nH]c(-c3cc(S(=O)(=O)NC4CCN(c5ncc(C(=O)Nc6ccccc6N)cn5)CC4)ccc3OCC)nc12 [Example 1-02] | +++ (basal x2≤(+++)<basal x3) | 0.01 to 1 µM |  |  |  |  |
| CCCc1nn(C)c2c(=O)[nH]c(-c3cc(Cc4ccc(C(=O)N5CCNC(=O)C5)cc4)ccc3OCC)nc12 [Example 1-19] | ++ (basal x1.4≤(++)<basal x2) | 0.01 to 1 µM |  |  |  |  |
| Nc1ccccc1NC(=O)c1cnc(N2CCC(CN3CC(=O)N4C(Cc5c([nH]c6ccccc56)C4c4ccc5c(c4)OCO5)C3=O)CC2)nc1 (racemic) [Example 4-01, N-(2-aminophenyl)-2-(4-((6-(benzo[d][1,3]dioxol-5-yl)-1,4-dioxo-3,4,6,7,12,12a-hexahydropyrazino[1′,2′:1,6]pyrido[3,4-b]indol-2(1H)-yl)methyl)piperidin-1-yl)pyrimidine-5-carboxamide] |  | 1 to 10 µM |  |  |  | ++ (basal x1.4≤(++)<basal x2) |
| CCCc1nn(C)c2c(=O)[nH]c(-c3cc(CC(=O)Nc4ccccn4)ccc3OCC)nc12 [Example 1-15, 2-[4-ethoxy-3-(1-methyl-7-oxo-3-propyl-6H-pyrazolo[4,3-d]pyrimidin-5-yl)phenyl]-N-(2-pyridyl)acetamide] | ++ (basal x1.4≤(++)<basal x2) | 0.01 to 1 µM |  |  |  |  |
| CCCc1nc(C)c2c(=O)[nH]c(-c3cc(CC4CC(C(=O)Nc5ccccc5N)C4)ccc3OCC)nn12 (racemic) [Example 2-04, N-(2-aminophenyl)-3-[[4-ethoxy-3-(5-methyl-4-oxo-7-propyl-3H-imidazo[5,1-f][1,2,4]triazin-2-yl)phenyl]methyl]cyclobutanecarboxamide] | ++++ (basal x3≤(++++)) | < 0.01 µM |  |  |  |  |
| CCCc1nn(C)c2c(=O)[nH]c(-c3cc(Cc4ccc(C(=O)Nc5ccccc5N)s4)ccc3OCC)nc12 [Example 1-08] | ++++ (basal x3≤(++++)) | 0.01 to 1 µM |  |  |  |  |
